Assay results taken from patent US12636325B2, “Probiotic compositions for treating and preventing colorectal cancer” (The Chinese University of Hong Kong, priority 2021, dated 2026).

Assays:
Apc^min/+ mice [1] = assay: Intestinal tumorigenesis in Apc^Min/+ mice gavaged with L. gallinarum; format: in vivo; conditions: male and female Apc^Min/+ mice with CH-223191 treatment
Experimental: […] Apc^Min/+ mice at 5 to 6 weeks old were divided into 3 groups with or without CH-223191 treatment: (1) control; (2) E. coli MG1655; and (3) L. gallinarum. L. gallinarum and E. coli MG1655 were cultured in MRS broth (Difco Laboratories, Detroit, MN) and BHI broth, respectively. After one day, 1.0×10^8 colony-forming units (CFUs) bacteria were collected and resuspended in 100 ul PBS. Mice were gavaged once daily for 8 weeks and body weight and stool were examined weekly.
Mouse colonoscopy (Karl Storz Endoskope, Tuttlingen, Germany) was performed prior to sacrifice. The colonoscope was inserted into the anus and advanced proximally under direct visualization, facilitated by air insufflation, and representative pictures of the colon tumor from each group were recorded. After 8 weeks of gavage, mice were anaesthetized and sacrificed. Small intestines and colons of mice were longitudinally opened and rinsed with PBS. Total number of tumors in small intestine and colon were recorded. Size of each tumor was measured using previous published formula^42. All animal studies were performed in accordance with guidelines approved by the Animal Experimentation Ethics Committee of The Chinese University of Hong Kong.
To investigate the effect of L. gallinarum on colorectal tumorigenesis, Apc^Min/+ mice were first used. […]

[2] = test system: CRC cell lines (HCT116 and LoVo); assay: Cell viability (MTT) assay, CRC cell lines; format: cell-based
Experimental: After culturing L. gallinarum or E. coli MG1655 for 1-2 days, the bacterial concentration in each culture medium was measured using NanoDrop spectrophotometer (NanoDrop Technologies, Wilmington, DE). BHI cultures were diluted to ensure equal concentrations of L. gallinarum and E. coli. Culture supernatants were then collected by centrifugation at 5,000 rpm for 10 minutes, followed by sterile filtration with a 0.22-μm membrane. Filtrates were collected and termed as L. gallinarum culture supernatant (LGCS) or E. coli MG1655 culture supernatant (ECCS). Bacterial culture supernatant was separated into low-molecular-weight (LMW) and high-molecular-weight (HMW) using Amicon Ultra-15 Centrifugal Filter Units with a pore size of 3 kilodalton (kDa, Millipore, Bedford, MA). After centrifugation in a swinging bucket rotor at 4,000 g for 30 minutes, cells were cultured in medium containing […] or control broth (LMW, 10%; HMW, 1%). The bacterial supernatants were heated at 100° C. for 30 minutes or treated with proteinase k (50 ug/ml; QIAGEN GmbH, Hilden, Germany). […] Cell proliferation was measured by MTT assay for 5 consecutive days. The amount of MTT formazan product was determined by measuring absorbance at a wavelength of 570 nm (OD570) with a microplate reader (Multiskan GO Microplate Spectrophotometer, Thermo Scientific, Vantaa, Finland). […]

[3] = target: T1, aryl hydrocarbon receptor (AhR) (Homo sapiens, UniProt P35869); assay: Transcription of AhR after AhR antagonist; format: cell-based; conditions: 100 nM
T1 construct: endogenous in cells

Apc^min/+ mice [4] = assay: Gavage of ILA into Apc^Min/+ mice; format: in vivo; conditions: gavage 20 mg/kg
Experimental: Functional investigation of ILA in CRC tumorigenesis was then performed in vivo. […] Moreover, additional experiments were performed to investigate if antagonizing ILA could abrogate L. gallinarum medicated anti-cancer effect. […] Thus, ILA can contribute, at least in part, to the tumor-suppressive effect of L. gallinarum.

[5] = test system: CRC cell lines, HCT116 and LoVo; assay: Apoptosis assay (Annexin V-PE / 7-AAD flow cytometry), CRC cell lines; format: cell-based; conditions: FIG. 18F
Experimental: Cells were plated on 6-well plates 24 hours prior to treatment, and cultured in medium containing 10% […] or control broth. CRC patient-derived organoids were cultured on 6-well plates, and 10% […] or control broth was added to Matrigel and growth medium. After treatment, cells and organoids were digested in 0.25% trypsin-EDTA (Gibco-Invitrogen Corp., Grand Island, NY) and TrypLE, respectively. For apoptosis assay, the proportion of apoptotic cells was evaluated by dual staining with Annexin V-PE and 7-Aminoactinomycin D (7-AAD) (BD Pharmingen, San Jose, CA). Combination of Annexin V-PE and 7-AAD staining distinguished early apoptotic cells (Annexin V+, 7-AAD-) and late apoptotic cells (Annexin V+, 7-AAD+). For cell cycle analysis, cells treated with 10% […] or control broth for 1 day were fixed and stained with 50 μg/ml propidium iodide (PI) (BD Pharmingen). Cell cycle of all stained cells were analyzed using […] cell sorter (BD Biosciences, San Jose, CA).

T1 sequence (P35869 11-848): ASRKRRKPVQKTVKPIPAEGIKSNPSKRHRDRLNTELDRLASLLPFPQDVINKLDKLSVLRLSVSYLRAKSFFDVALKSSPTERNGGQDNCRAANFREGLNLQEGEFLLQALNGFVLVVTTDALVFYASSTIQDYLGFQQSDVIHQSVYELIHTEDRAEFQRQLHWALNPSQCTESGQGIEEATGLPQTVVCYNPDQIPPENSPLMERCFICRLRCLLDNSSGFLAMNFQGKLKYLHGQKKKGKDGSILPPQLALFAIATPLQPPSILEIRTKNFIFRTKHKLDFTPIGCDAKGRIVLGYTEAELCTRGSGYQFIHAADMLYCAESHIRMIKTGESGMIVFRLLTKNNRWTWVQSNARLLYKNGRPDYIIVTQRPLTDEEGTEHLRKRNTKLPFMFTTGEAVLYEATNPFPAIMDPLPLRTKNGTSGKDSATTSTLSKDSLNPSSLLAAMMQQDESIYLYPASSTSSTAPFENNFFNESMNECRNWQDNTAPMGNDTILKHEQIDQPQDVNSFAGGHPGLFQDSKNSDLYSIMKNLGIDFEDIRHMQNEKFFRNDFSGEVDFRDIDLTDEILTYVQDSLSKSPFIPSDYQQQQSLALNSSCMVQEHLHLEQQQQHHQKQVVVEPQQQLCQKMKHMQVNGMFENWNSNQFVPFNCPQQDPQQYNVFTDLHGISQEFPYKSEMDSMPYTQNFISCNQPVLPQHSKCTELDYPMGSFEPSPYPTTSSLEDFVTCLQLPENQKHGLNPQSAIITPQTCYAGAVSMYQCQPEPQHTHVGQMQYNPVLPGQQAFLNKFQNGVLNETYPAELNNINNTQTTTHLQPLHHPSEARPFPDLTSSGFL

| Structure (SMILES) | effect on CRC suppression by L. gallinarum in Apc^Min/+ mice (Apc^min/+ mice [1]) | effect on CRC suppression by L. gallinarum in vitro ([2]; CRC cells pre-treated with 100 nM for 12 hours before culture supernatant) | transcription of AhR [3] | cell viability of CRC cells ([2]; same amount of ILA as produced from L. gallinarum) | cells with positive TUNEL staining, adjacent normal tissues (Apc^min/+ mice [4]) | cells with positive TUNEL staining, tumor tissues (Apc^min/+ mice [4]) | tumor number (Apc^min/+ mice [4]) | tumor size (Apc^min/+ mice [4]) | cell apoptosis of CRC cells [5] |
| --- | --- | --- | --- | --- | --- | --- | --- | --- | --- |
| Cc1ccccc1N=Nc1ccc(NC(=O)c2ccnn2C)c(C)c1 [CH-223191] | abolished the effect of L. gallinarum in suppressing CRC | abolished the effect of L. gallinarum in suppressing CRC | significantly suppressed |  |  |  |  |  |  |
| O=C(O)C(O)Cc1c[nH]c2ccccc12 (stereo not drawn) [ILA, indole-3-lactic acid] |  |  |  | decreased substantially | but not in adjacent normal tissues | increased | significantly reduced | significantly reduced | significantly increased |
